Assay results from ChEMBL document CHEMBL1201862, “PubChem BioAssay data set” (2004).
Calls of active or inactive are those of the source.

Assays:
[1] = viability loss in HEK293 cells – cell-based, plate reader, cherry-picked samples, cytotoxicity control, dose response (AID 743446); format: functional
[2] = blockade of melanocortin 4 receptor signaling – cell-based, plate reader, cherry pick, counter-screen for LGR2 antagonist project, dose response (AID 743444); format: functional;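 note: transfected HEK 293 cells stimulated with alpha-MSH peptide; potency of inhibitors of the alpha-MSH evoked signal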
[3] = A549 cell cytotoxicity, dose response, cytotoxicity control, plate reader, cherry-pick, antagonist series (AID 743412); format: functional, cell-based
[4] = growth inhibition of yeast DHODH-expressing 3D7 parasites – SYBR Green, dry powder samples, dose response (AID 1159570); format: functional, cell-based;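 note: parasite growth measured after 72 hours of compound exposure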
[5] = blockers of bursicon-stimulated LGR2 cAMP reporter – cell-based, HEK293, CRE-luciferase reporter, cherry pick, set 2, dose response (AID 743343); format: functional;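 note: transfected cells were stimulated with diluted bursicon conditioned medium after compound addition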
[6] = Dd2 parasite growth inhibition in erythrocytes – SYBR Green, dry powder samples, set 9, dose response (AID 1159568); format: functional, cell-based
[7] = toxicity toward HepG2 liver cells – cell-based, plate reader, cherry-pick, antagonist series, cytotoxicity control, dose response (AID 743416); format: functional
[8] = Dd2 malaria parasite growth inhibition potency – SYBR Green, dry powder samples, dose response (AID 1159566); format: functional, cell-based;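 note: potency for growth inhibition with lower SYBR green DNA signal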
[9] = toxicity to human HepG2 hepatoma cells – cell-based, plate reader, dry powder samples, cytotoxicity control, dose response (AID 1159569); format: functional;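 note: inhibitor potency with signal falling toward the positive control level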
[10] = P. falciparum Dd2 growth inhibitors, dose response, SYBR Green, cherry-picked samples (AID 1159567); format: functional, cell-based
[11] = growth inhibition of PfATP4-mutant resistant parasites – NITD609-resistant line, SYBR Green, dry powder, dose response (AID 1159571); format: functional, cell-based;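 note: parasites synchronized at ring stage by sorbitol before testing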
[12] = Late stage assay provider results from the probe development effort to identify inhibitors of the Plasmodium falciparum M18 Aspartyl Aminopeptidase (M18AAP): radiolabel-based cell-based dose response assay to identify compounds that inhibit P. falciparum growth in RBCs, Set 2..; format: functional
[13] = target: G-protein coupled receptor 183 (Homo sapiens, UniProt P32249); experiment: SAR confirmation of small molecule antagonists of the EBI2 receptor via a luminescent beta-arrestin assa.; format: functional
Sequence of G-protein coupled receptor 183 (P32249 whole entry): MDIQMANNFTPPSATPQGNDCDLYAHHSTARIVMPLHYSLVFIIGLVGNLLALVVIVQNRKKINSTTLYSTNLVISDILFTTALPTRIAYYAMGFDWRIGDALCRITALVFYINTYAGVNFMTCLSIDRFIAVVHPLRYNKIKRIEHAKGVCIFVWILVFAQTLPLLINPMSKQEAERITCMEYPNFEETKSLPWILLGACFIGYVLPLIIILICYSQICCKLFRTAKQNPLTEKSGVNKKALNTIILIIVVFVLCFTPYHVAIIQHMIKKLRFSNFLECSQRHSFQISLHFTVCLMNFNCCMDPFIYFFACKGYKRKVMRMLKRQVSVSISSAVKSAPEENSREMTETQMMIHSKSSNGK

[14] = RKO cell viability reduction, dose response, CellTiter-Glo luminescence (AID 1117322); format: functional
[15] = HCT116 cell viability decrease, GSK3B pretreatment – CellTiter-Glo, IC50, dose response (AID 1117339); format: functional; details: HCT-116
[16] = glucagon-like peptide-1 release potency in STC-1, concentration-response, half-maximal inhibitory concentration in the STC-1 line (AID 1117345); format: functional, cell-based
[17] = cytotoxicity toward Colo320 cells – cell-based, CellTiter-Glo luminescence, IC50, dose response (AID 1117334); format: functional; details: COLO 320
[18] = cytotoxicity toward HCT116 cells – cell-based, CellTiter-Glo luminescence, IC50, dose response (AID 1117332); format: functional; details: HCT-116
[19] = Reduced DLD-1 viability, concentration-response, CellTiter-Glo luminescence (AID 1117352); format: functional
[20] = cytotoxicity toward HT-29 cells – cell-based, CellTiter-Glo luminescence, IC50, dose response (AID 1117330); format: functional
[21] = Potency on glucagon-like peptide 1 release, dose-response in NCI-H716 cell line, half maximal inhibitory concentration (AID 1117344); format: functional, cell-based
[22] = SNU-C1 cell viability reduction, dose response, CellTiter-Glo luminescence (AID 1117323); format: functional, cell-based
[23] = CellTiter-Glo luminescence survival assay, SW480 colon tumor line, concentration-response curve, half-maximal inhibitory concentration (AID 1117338); format: functional

For `COc1ccccc1C#Cc1ccc([C@H]2[C@@H](C#N)N(C(=O)C3CCCCC3)[C@H]2CO)cc1`, the AC50 [1] was 14.9 µM (active), the AC50 [2] was 7.87 µM (active) and the AC50 [3] was 21.3 µM (active). For the same compound, the AC50 [4] was 0.862 µM (active), the AC50 [5] was 11.3 µM (active) and the AC50 [6] was 1.17 µM (active). For the same compound, the AC50 [7] was 30.5 µM (active), the AC50 [8] was 0.349 µM (active) and the AC50 [9] was 29.8 µM (active). For the same compound, the AC50 [10] was 1.19 µM (active) and the AC50 [11] was 0.443 µM (active).

In the case of `COc1cccc(CCNc2c3ccccc3nc3ccccc23)c1`, the IC50 [12] is reported as 0.6 µM (active).

With `Oc1ccc(CCNC2CCN(Cc3ccccc3)CC2)cc1O` the IC50 [12] was 6.5 µM (active).

In the case of `OC[C@@H]1[C@@H](c2ccccc2)C2(CN(CC3CC3)C2)N1Cc1ccc(F)cc1`, the AC50 [4] is reported as 1.98 µM (active), the AC50 [8] is reported as 1.09 µM (active) and the AC50 [9] is reported as 43.6 µM (active). The AC50 [10] was 0.919 µM (active) and the AC50 [11] was 1.52 µM (active).

For `O=C(/C=C/c1ccc(Br)cc1)N1CCN(Cc2ccccc2F)CC1`, the IC50 [13] was 0.0287 µM (active).

In the case of `O=C(CCCc1ccc(Br)cc1)N1CCN(C(=O)c2ccc(Cl)cc2)CC1`, the IC50 [13] is reported as > 1 µM (inactive).

For `c1ccc2c(c1)Sc1ccccc1N2CC1CN2CCC1CC2` (stereo not given) [MEQUITAZINE], the IC50 [14] was 8.46 µM (inactive), the IC50 [15] was > 20 µM (inactive) and the IC50 [16] was > 40 µM (inactive). For the same compound, the IC50 [17] was > 20 µM (inactive), the IC50 [18] was > 20 µM (inactive) and the IC50 [19] was > 20 µM (inactive). For the same compound, the IC50 [20] was > 20 µM (inactive), the IC50 [21] was > 40 µM (inactive) and the IC50 [22] was > 20 µM (inactive). For the same compound, the IC50 [23] was 5.43 µM (inactive).
